This is an account of results in ChEMBL document CHEMBL1795221, “In vitro and in vivo anticancer activity evaluation of ursolic acid derivatives” (Eur J Med Chem, 2011).

Bounds are passed on as bounds.

Assay [1] in a line: Cytotoxicity against human HELF cells after 24 hrs by MTT assay. Format: cell-based. On the technique in general: Tetrazolium assays rely on reduction of a dye to a coloured formazan, in cell work by metabolically active cells.
For a further assay, the system named is SH-SY5Y. As to the kind of experiment: Cytotoxicity against human SH-SY5Y cells after 24 hrs by MTT assay. Format: functional, cell-based.
For another assay, the system named is BGC-823. The experiment in a line: Cytotoxicity against human BGC823 cells after 24 hrs by MTT assay. Format: functional, cell-based. The conditions noted are these: BGC-823, 24 h.
The test system of a further assay is HepG2. The experiment in a line: cells. Conditions: Homo sapiens, HepG2, 24 h.
The next assay concerns HeLa. The experiment in a line: cells. Conditions: Homo sapiens, 24 h.

Description for HeLa: Cytotoxicity against human HeLa cells after 24 hrs by MTT assay
Description for HepG2: Cytotoxicity against human HepG2 cells after 24 hrs by MTT assay

For the compound `C[C@H]1[C@H](C)CC[C@]2(C(=O)NC(Cc3ccc(O)cc3)C(=O)O)CC[C@]3(C)C(=CC[C@@H]4[C@@]5(C)CC[C@H](O)C(C)(C)[C@@H]5CC[C@]43C)[C@H]12` (stereo not given in full), the IC50 (in assay [1]; with SH-SY5Y; in the assay with BGC-823; with HepG2; in the assay on HeLa) was more than 100 µM throughout.

Turning to `CCCCOC(=O)[C@]12CC[C@@H](C)[C@H](C)[C@H]1C1=CC[C@@H]3[C@@]4(C)CC[C@H](OC(C)=O)C(C)(C)[C@@H]4CC[C@@]3(C)[C@]1(C)CC2`, the IC50 (in assay [1]; with SH-SY5Y; in the assay with BGC-823; in the assay with HepG2; in the assay on HeLa) was more than 100 µM each time.

For the compound `C[C@H]1[C@H](C)CC[C@]2(C(=O)OCCCO[N+](=O)[O-])CC[C@]3(C)C(=CC[C@@H]4[C@@]5(C)CC[C@H](O)C(C)(C)[C@@H]5CC[C@]43C)[C@H]12`, the IC50 in assay [1] is 82.6 µM; in the assay on SH-SY5Y, 89.6 µM; in the assay on BGC-823, 98.3 µM; in the assay on HepG2, 87.4 µM; in the assay on HeLa, 69.4 µM.

As for `C[C@H]1[C@H](C)CC[C@]2(C(=O)NCCO)CC[C@]3(C)C(=CC[C@@H]4[C@@]5(C)CC[C@H](O)C(C)(C)[C@@H]5CC[C@]43C)[C@H]12`, the IC50 in assay [1] stood at 52.8 µM; in the assay on SH-SY5Y, 65 µM; with BGC-823, 78.3 µM; in the assay on HepG2 it was 82.4 µM; in the assay with HeLa it was 32.3 µM.

With `CC(=O)O[C@H]1CC[C@]2(C)[C@H]3CC=C4[C@@H]5[C@@H](C)[C@H](C)CC[C@]5(C(=O)N5CCC(CCO)CC5)CC[C@@]4(C)[C@]3(C)CC[C@H]2C1(C)C`, the half-inhibitory concentration (IC50) in assay [1] stood at 30 µM; with SH-SY5Y, 40.1 µM; with BGC-823, 51.3 µM; in the assay with HepG2, 59.4 µM; in the assay on HeLa, 12.4 µM.

For `CCOC(=O)[C@]12CC[C@@H](C)[C@H](C)[C@H]1C1=CC[C@@H]3[C@@]4(C)CC[C@H](O)C(C)(C)[C@@H]4CC[C@@]3(C)[C@]1(C)CC2`, the IC50 in assay [1] is 81.9 µM; with SH-SY5Y it was 66.3 µM; in the assay on BGC-823 it was 69.3 µM; with HepG2 it was 70.8 µM; in the assay on HeLa it was 29.2 µM.

Turning to `COC(=O)C(CO)NC(=O)[C@]12CC[C@@H](C)[C@H](C)[C@H]1C1=CC[C@@H]3[C@@]4(C)CC[C@H](OC(C)=O)C(C)(C)[C@@H]4CC[C@@]3(C)[C@]1(C)CC2` (stereo not given in full), the IC50 amounted to 22.3 µM in assay [1]; 37.2 µM in the assay with SH-SY5Y; 29 µM with BGC-823; 35.3 µM in the assay with HepG2; 20.6 µM in the assay with HeLa.

Regarding `CCCCOC(=O)[C@]12CC[C@@H](C)[C@H](C)[C@H]1C1=CC[C@@H]3[C@@]4(C)CC[C@H](O)C(C)(C)[C@@H]4CC[C@@]3(C)[C@]1(C)CC2`, the half-maximal inhibitory concentration (IC50) in assay [1] was more than 100 µM; in the assay with SH-SY5Y, more than 100 µM; in the assay with BGC-823, more than 100 µM; in the assay with HepG2, more than 100 µM; in the assay on HeLa it was 63.2 µM.

Regarding `C[C@H]1[C@H](C)CC[C@]2(C(=O)NC(CO)C(=O)O)CC[C@]3(C)C(=CC[C@@H]4[C@@]5(C)CC[C@H](O)C(C)(C)[C@@H]5CC[C@]43C)[C@H]12` (stereo not given in full), the 50% inhibitory concentration (IC50) in assay [1] came to 60.3 µM; in the assay with SH-SY5Y, 72.2 µM; with BGC-823, 79.3 µM; with HepG2 it was 83 µM; in the assay on HeLa it was 41.6 µM.

`COC(=O)C(Cc1ccc(O)cc1)NC(=O)[C@]12CC[C@@H](C)[C@H](C)[C@H]1C1=CC[C@@H]3[C@@]4(C)CC[C@H](OC(C)=O)C(C)(C)[C@@H]4CC[C@@]3(C)[C@]1(C)CC2` (stereo not given in full): the IC50 is 35.8 µM in assay [1]; more than 100 µM in the assay on SH-SY5Y; 83 µM in the assay with BGC-823; more than 100 µM in the assay with HepG2; 67 µM with HeLa.

With `CCCOC(=O)[C@]12CC[C@@H](C)[C@H](C)[C@H]1C1=CC[C@@H]3[C@@]4(C)CC[C@H](O)C(C)(C)[C@@H]4CC[C@@]3(C)[C@]1(C)CC2`, the IC50 in assay [1] is more than 100 µM; with SH-SY5Y, 92.5 µM; with BGC-823, 79.7 µM; with HepG2, 89.1 µM; with HeLa, 48 µM.

`CCCOC(=O)[C@]12CC[C@@H](C)[C@H](C)[C@H]1C1=CC[C@@H]3[C@@]4(C)CC[C@H](OC(C)=O)C(C)(C)[C@@H]4CC[C@@]3(C)[C@]1(C)CC2`: the IC50 (in assay [1]; with SH-SY5Y; in the assay with BGC-823; in the assay on HepG2; with HeLa) was more than 100 µM in each case.

Consider `C[C@H]1[C@H](C)CC[C@]2(C(=O)N3CCN(CCOCCO)CC3)CC[C@]3(C)C(=CC[C@@H]4[C@@]5(C)CC[C@H](O)C(C)(C)[C@@H]5CC[C@]43C)[C@H]12`, for which the IC50 was 28.1 µM in assay [1]; 30.3 µM with SH-SY5Y; 35 µM in the assay on BGC-823; 36.7 µM with HepG2; 23.8 µM in the assay with HeLa.

Take `CC(=O)O[C@H]1CC[C@]2(C)[C@H]3CC=C4[C@@H]5[C@@H](C)[C@H](C)CC[C@]5(C(=O)NCCO)CC[C@@]4(C)[C@]3(C)CC[C@H]2C1(C)C`: the IC50 in assay [1] came to 27.8 µM; in the assay with SH-SY5Y it was 49.4 µM; with BGC-823, 48.5 µM; in the assay on HepG2, 46.6 µM; in the assay on HeLa it was 16.3 µM.

With `CC(=O)O[C@H]1CC[C@]2(C)[C@H]3CC=C4[C@@H]5[C@@H](C)[C@H](C)CC[C@]5(C(=O)N5CCN(CCOCCO)CC5)CC[C@@]4(C)[C@]3(C)CC[C@H]2C1(C)C`, the IC50 in assay [1] was 38.9 µM; in the assay on SH-SY5Y, 9.51 µM; in the assay with BGC-823, 12.8 µM; in the assay with HepG2, 15.3 µM; with HeLa, 6.28 µM.

Take `C[C@H]1[C@H](C)CC[C@]2(C(=O)N3CCC(CCO)CC3)CC[C@]3(C)C(=CC[C@@H]4[C@@]5(C)CC[C@H](O)C(C)(C)[C@@H]5CC[C@]43C)[C@H]12`: the IC50 in assay [1] is more than 100 µM; with SH-SY5Y it was more than 100 µM; in the assay on BGC-823, more than 100 µM; in the assay on HepG2, more than 100 µM; in the assay with HeLa it was 67.3 µM.

Regarding `CC(=O)O[C@H]1CC[C@]2(C)[C@H]3CC=C4[C@@H]5[C@@H](C)[C@H](C)CC[C@]5(C(=O)N5CCN(CCO)CC5)CC[C@@]4(C)[C@]3(C)CC[C@H]2C1(C)C`, the IC50 in assay [1] was found to be 31 µM; in the assay with SH-SY5Y, 11.7 µM; with BGC-823 it was 13.9 µM; in the assay with HepG2 it was 20.5 µM; in the assay with HeLa it was 7.24 µM.

Take `C[C@H]1[C@H](C)CC[C@]2(C(=O)OCCO[N+](=O)[O-])CC[C@]3(C)C(=CC[C@@H]4[C@@]5(C)CC[C@H](O)C(C)(C)[C@@H]5CC[C@]43C)[C@H]12`: the IC50 in assay [1] was found to be 68.1 µM; with SH-SY5Y, 71.1 µM; in the assay with BGC-823, 84.2 µM; in the assay on HepG2 it was 79.6 µM; with HeLa it was 36.2 µM.

Regarding `C[C@H]1[C@H](C)CC[C@]2(C(=O)N(CCO)CCO)CC[C@]3(C)C(=CC[C@@H]4[C@@]5(C)CC[C@H](O)C(C)(C)[C@@H]5CC[C@]43C)[C@H]12`, the concentration for half-maximal inhibition (IC50) in assay [1] stood at 36.9 µM; in the assay on SH-SY5Y, 21.4 µM; in the assay with BGC-823, 39.3 µM; in the assay on HepG2 it was 35.7 µM; in the assay with HeLa, 14.4 µM.

The IC50 is the concentration needed to halve the response being measured.
